Laboratory results taken from patent US11866695B2, “Methods and systems and related compositions for mixtures separation with a solid matrix” (CALIFORNIA INSTITUTE OF TECHNOLOGY, priority 2019, dated 2024).

Experiments:
λ phage DNA = assay: Zymo Quick-DNA/RNA MagBead extraction with air dry replaced by TPW, qPCR; format: biochemical; conditions: 10× dilution of eluent into qPCR
Protocol: qPCR reactions contained 1× Bio-Rad SsoFast Supermix (1725201, Bio-Rad), PCR primers (IDT) at […] each, and were supplemented with nuclease-free water up to 10 μL. Each 96-well plate (thin-wall clear well, HSP9641, Bio-Rad) was sealed (Microseal B, MSB1001, Bio-Rad) and briefly spun in a Mini Plate Spinner Centrifuge (14-100-141, Fisher Scientific). Heating and real-time imaging were performed on the Bio-Rad CFX-96 Touch Real-Time PCR Detection System by heating to 95° C. for 5 min, cycling 40 times between 95° C. for 15 s, 60° C. for 15 s, and 72° C. for 20 s, and taking a melt-curve analysis. For the E. coli DNA dilution experiment, qPCR was run for 60 cycles. Fluorescence readings were taken at the end of each extension step. Quantification cycle (Cq) was determined when the software's automated baseline corrected fluorescence reached 200 RFU.
The Zymo Quick-DNA/RNA Viral MagBead (R2140) was tested. For the Zymo MagBead kit, 200 μL sample was mixed with 200 μL Zymo 2×DNA/RNA Shield, 4 μL Proteinase K, and 800 μL Zymo Viral DNA/RNA Buffer. 1204 μL was added to each tube, mixed with 20 μL MagBinding Beads, and placed on an UltraRocker Rocking Platform (1660709EDU, Bio-Rad, Hercules, Calif., USA) for 10 min at max speed. Tubes were transferred to a DynaMag-2 magnetic rack (12321D, Thermo Fisher Scientific) and manufacturer instructions was followed for the remainder of the protocol. […]

[1] = system: LAMP spiked with 5×104 copies λ phage DNA; assay: LAMP reaction inhibition by dilutions of NA extraction kit buffers; format: biochemical; conditions: for Avg TTP: 9 replicates, non-detects assigned 46.7 min
Protocol: LAMP primers (Integrated DNA Technologies (IDT), Coralville, Iowa, USA) were designed, ordered, and added at NEB's recommended concentrations of […] FIP/BIP, 0.2μM F3/B3, and […] LoopF/B.
Each 96-well plate was sealed and briefly spun. […] Time-to-positive (TTP) was determined when the software's automated baseline corrected fluorescence reached 1000 RFU.
Confidence intervals were calculated assuming the populations to be normally distributed and using a t statistic. For buffer inhibition experiments, statistical analysis was performed by a 1-tailed unequal variance t-test (N=9) comparing the water condition (control) to each buffer concentration (H1: the mean is delayed). For the subsequent experiments, a 2-tailed unequal variance t-test (H1: the means are different) was used. […] Although this approach introduces some bias into the analysis, it is believed this is the best representation for handling non-detects (other alternatives include excluding the non-detects or assigning non-detect values to the average of those that amplified).
These two commercial kits in particular were chosen because they both utilize minimal protocols (lysis, wash, elute) with no added steps (e.g. bacterial pellet spins, proteinase K, lysozyme, DNase/RNase, filtration, etc.). Specifically, an experiment was conducted to identify the concentration at which each buffer inhibits qPCR and LAMP.

Structure (SMILES) | cycle delay vs manufacturer protocol (λ phage DNA) | Avg TTP ([1]; 0.03% buffer in LAMP) | ΔTTP ([1]; 0.03% buffer vs water condition (0%)) | Avg TTP ([1]; 0.1% buffer in LAMP) | ΔTTP ([1]; 0.1% buffer vs water condition (0%)) | Avg TTP ([1]; 0.32% buffer in LAMP) | ΔTTP ([1]; 0.32% buffer vs water condition (0%)) | Avg TTP ([1]; 1% buffer in LAMP) | ΔTTP ([1]; 1% buffer vs water condition (0%)) | Avg TTP ([1]; 3.2% buffer in LAMP) | ΔTTP ([1]; 3.2% buffer vs water condition (0%)) | Avg TTP ([1]; 10% buffer in LAMP) | ΔTTP ([1]; 10% buffer vs water condition (0%))
CCCCCCCCCCCO [1-undecanol] | 1.1 cycle | – | – | – | – | – | – | – | – | – | – | – | –
CCO [Ethanol, ethanol] | – | 6.4 min | 0.1 min | 6.5 min | 0.1 min | 6.6 min | 0.2 min | 6.9 min | 0.5 min | 9.7 min | 3.3 min | 46.7 min | 40.3 min
